Results published in patent publication US8026368B2, “Hydrazide compounds and thrombopoietin receptor activators” (Nissan Chemical Industries, Ltd., priority 2005, dated 2011).

Experiments:
[1] = biological target: T1, human thrombopoietin receptor (c-mpl) (Homo sapiens, UniProt P40238); assay: Stimulation of proliferation of thrombopoietin-dependent cell line UT7/EPO-mpl (WST-8); assay type: cell-based; conditions: human leukemic cell line UT-7/EPO-mpl, 4 days incubation, WST-8, relative to 10 ng/mL TPO; read-out: EC50 (concentration that yields a growth rate corresponding to 50% of the growth observed in the presence of 10 ng/mL TPO) (converted)
T1 construct: expressed in transfected cells
T1 sequence (P40238 26-635): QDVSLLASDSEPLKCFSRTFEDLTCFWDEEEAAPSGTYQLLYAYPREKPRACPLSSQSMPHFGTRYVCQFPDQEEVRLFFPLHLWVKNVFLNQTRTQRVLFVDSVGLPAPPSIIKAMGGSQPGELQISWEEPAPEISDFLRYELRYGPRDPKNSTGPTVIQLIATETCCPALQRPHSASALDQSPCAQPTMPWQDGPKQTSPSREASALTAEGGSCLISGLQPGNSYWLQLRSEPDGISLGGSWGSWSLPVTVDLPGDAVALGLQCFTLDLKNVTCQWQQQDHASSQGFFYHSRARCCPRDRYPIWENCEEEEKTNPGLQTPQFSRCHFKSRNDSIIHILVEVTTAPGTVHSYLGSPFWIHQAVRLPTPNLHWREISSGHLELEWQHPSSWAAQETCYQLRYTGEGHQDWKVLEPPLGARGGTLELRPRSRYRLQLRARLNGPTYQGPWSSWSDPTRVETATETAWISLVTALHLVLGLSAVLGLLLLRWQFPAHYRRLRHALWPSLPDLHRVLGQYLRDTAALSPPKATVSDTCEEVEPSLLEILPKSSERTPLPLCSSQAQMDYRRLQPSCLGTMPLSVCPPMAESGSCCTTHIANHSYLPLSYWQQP
Protocol: The responses of thrombopoietin receptor to the compounds of the present invention prepared in the Synthetic Examples were assayed using a human leukemic cell line, UT7/EPO-mpl.
UT7/EPO-mpl is a stable transformed cell line obtained by introducing into human leukemic cell line UT7/EPO a vector that induces expression of human thrombopoietin receptor (c-mpl) under control of cytomegalovirus immediate-early promoter by the method of Takatoku et al. (J. Biol. Chem., 272:7259-7263 (1997)). […] These two cell lines were subcultured in IMDM (GIBCO) containing 10% fetal bovine serum (Thermo Electron or BioWest) using a CO2 incubator (5% CO2, 37° C.).
The subcultured cells described above were washed twice with PBS and suspended in IMDM containing 10% fetal bovine serum at a cell density of 6×10^4 cells/ml. The cell suspension was transferred to a 96-well tissue culture plate (CORNING) in 100-μl aliquots. Then either thrombopoietin (Pepro Tech EC) or the compounds of the Synthetic Examples dissolved in dimethyl sulfoxide were diluted 83-fold with IMDM containing 10% fetal bovine serum and added to the aforementioned cell suspension in 20-μl aliquots. The cell suspension was incubated in a CO2 incubator (5% CO2, 37° C.) for 4 days. Cell proliferation was assayed using WST-8 reagent (Kishida Chemical Co., Ltd.) according to instructions by the manufacturer. A 10-μl aliquot of 5 mM WST-8 reagent solution was added to each well of the tissue culture plate, and the plate was incubated at 37° C. for 4 hours. The formazan pigment generated was detected by measuring the absorbance at 450 nm with a 96-well microplate reader (Nihon Molecular Devices, Spectramax 190).
The concentration of each compound that yields a growth rate corresponding to 50% of the growth of human leukemic cell line UT-7/EPO-mpl observed in the presence of 10 ng/mL TPO (EC50) in the test on the compounds of the Synthetic Examples in Assay Example 1 are shown in Table 16.

UT7/EPO = conditions: cell line characterisation, Takatoku et al.; cited from earlier work
[2] = biological target: T1, human thrombopoietin receptor (c-mpl); conditions: cell line characterisation, Takatoku et al.; cited from earlier work

Row | Molecule | EC50 [1] [nM] | further results
1 | CC1=NN(c2ccc(C)c(C)c2)C(=O)/C1=C(/C)NNC(=O)c1ccc(C(=O)N2CCCC2)s1 [Example 4] | 7.52 | 
2 | CC1=NN(c2ccc(C(C)(C)C)cc2)C(=O)/C1=C(/C)NNC(=O)c1ccc(C(=O)NN(C)C)s1 [Example 16] | 3.94 | 
3 | CC1=NN(c2ccc(C(F)(F)F)cc2)C(=O)/C1=C(/C)NNC(=O)c1ccc(C(=O)NN(C)C)s1 [Example 33] | 4.45 | 
4 | CC1=NN(c2ccc(C)c(C)c2)C(=O)/C1=C(/C)NNC(=O)c1ccc(C(=O)N2CC(O)C(O)C2)s1 (stereo not shown) [Example 3] | 5.63 | 
5 | CC1=NN(c2ccc(Cl)c(Cl)c2)C(=O)/C1=C(/C)NNC(=O)c1ccc(C(=O)NC(C)C)s1 [Example 37] | 5.46 | 
6 | CCN(CC)C(=O)c1ccc(C(=O)NN/C(C)=C2\C(=O)N(c3ccc(C(C)(C)C)cc3)N=C2C)s1 [Example 14] | 11.7 | 
7 | CC1=NN(c2ccc(Cl)c(Cl)c2)C(=O)/C1=C(/C)NNC(=O)c1ccc(C(=O)NCc2cccnc2)s1 [Example 43] | 4.6 | 
8 | CCCNC(=O)c1ccc(C(=O)NN/C(C)=C2\C(=O)N(c3ccc(C(C)(C)C)cc3)N=C2C)s1 [Example 27] | 1.6 | 
9 | CC1=NN(c2ccc(C(F)(F)F)cc2)C(=O)/C1=C(/C)NNC(=O)c1ccc(C(=O)NCc2ccncc2)s1 [Example 29] | 1.59 | 
10 | CC1=NN(c2ccc(C)c(C)c2)C(=O)/C1=C(/C)NNC(=O)c1ccc(C(=O)NCc2ccccn2)s1 [Example 7] | 3.58 | 
11 | CC1=NN(c2ccc(C(F)(F)F)cc2)C(=O)/C1=C(/C)NNC(=O)c1ccc(C(=O)NC(C)C)s1 [Example 28] | 0.871 | 
12 | CC1=NN(c2ccc(C(C)(C)C)cc2)C(=O)/C1=C(/C)NNC(=O)c1ccc(C(=O)NCCC(=O)O)s1 [Example 24] | 5.86 | 
13 | CC1=NN(c2ccc(Cl)c(Cl)c2)C(=O)/C1=C(/C)NNC(=O)c1ccc(C(=O)NN(C)C)s1 [Example 40] | 5.65 | 
14 | CC1=NN(c2ccc(C(C)(C)C)cc2)C(=O)/C1=C(/C)NNC(=O)c1ccc(C(=O)N2CCC(N(C)C)C2)s1 (stereo not shown) [Example 18] | 5.03 | 
15 | CC1=NN(c2ccc(C(F)(F)F)cc2)C(=O)C1=C(C)NNC(=O)c1ccc(C(=O)N2CCCC2)s1 [Example 32] | 6.53 | 
16 | COC1CN(C(=O)c2ccc(C(=O)NN/C(C)=C3\C(=O)N(c4ccc(C(C)(C)C)cc4)N=C3C)s2)CC1OC (stereo not shown) [Example 22] | 5.78 | 
17 | CC1=NN(c2ccc(C)c(C)c2)C(=O)/C1=C(/C)NNC(=O)c1ccc(C(=O)NCc2ccncc2)s1 [Example 2] | 1.63 | 
18 | CC1=NN(c2ccc(C(C)(C)C)cc2)C(=O)/C1=C(/C)NNC(=O)c1ccc(C(=O)NN2CCOCC2)s1 [Example 21] | 1.2 | 
19 | CC1=NN(c2ccc(C(C)(C)C)cc2)C(=O)/C1=C(/C)NNC(=O)c1ccc(C(=O)N2CCC(N3CCCC3)CC2)s1 [Example 17] | 3.99 | 
20 | CC1=NN(c2ccc(C(C)(C)C)cc2)C(=O)/C1=C(/C)NNC(=O)c1ccc(C(=O)NC(C)C)s1 [Example 11] | 1.16 | 
21 | CC1=NN(c2ccc(Cl)c(Cl)c2)C(=O)/C1=C(/C)NNC(=O)c1ccc(C(=O)NCc2ccncc2)s1 [Example 38] | 4.97 | 

Row | Molecule | EC50 [1] [nM] | further results
22 | CC1=NN(c2ccc(C(F)(F)F)cc2)C(=O)/C1=C(/C)NNC(=O)c1ccc(C(=O)N2CCC(N3CCCC3)CC2)s1 [Example 34] | 4.25 | 
23 | CC1=NN(c2ccc(Cl)c(Cl)c2)C(=O)/C1=C(/C)NNC(=O)c1ccc(C(=O)N2CC(O)C(O)C2)s1 (stereo not shown) [Example 39] | 3.9 | 
24 | COCCNC(=O)c1ccc(C(=O)NN/C(C)=C2\C(=O)N(c3ccc(C(C)(C)C)cc3)N=C2C)s1 [Example 26] | 1.23 | 
25 | CC1=NN(c2ccc(C(F)(F)F)cc2)C(=O)/C1=C(/C)NNC(=O)c1ccc(C(=O)N2CCC(N(C)C)C2)s1 (stereo not shown) [Example 35] | 6.93 | 
26 | CC1=NN(c2ccc(C(C)(C)C)cc2)C(=O)/C1=C(/C)NNC(=O)c1ccc(C(=O)NCc2ccncc2)s1 [Example 12] | 0.528 | 
27 | CC1=NN(c2ccc(C)c(C)c2)C(=O)/C1=C(/C)NNC(=O)c1ccc(C(=O)NN(C)C)s1 [Example 5] | 6.16 | 
28 | CC1=NN(c2ccc(C)c(C)c2)C(=O)/C1=C(/C)NNC(=O)c1ccc(C(=O)NCc2cccnc2)s1 [Example 8] | 0.676 | 
29 | TPO: Thrombopoietin (Pepro Tech EC), a cytokine consisting of 332 amino acids; reference stimulus at 10 ng/mL |  | Response of mother cell line UT7/EPO to TPO (UT7/EPO): no response; Proliferation of UT7/EPO-mpl cell line in response to TPO [2]: stimulated
30 | CC1=NN(c2ccc(C)c(C)c2)C(=O)/C1=C(/C)NNC(=O)c1ccc(C(=O)NCCC(=O)O)s1 [Example 9] | 8.89 | 
31 | CC1=NN(c2ccc(Cl)c(Cl)c2)C(=O)/C1=C(/C)NNC(=O)c1ccc(C(=O)NCc2ccccn2)s1 [Example 42] | 5.34 | 
32 | CCN(CC)C(=O)c1ccc(C(=O)NN/C(C)=C2\C(=O)N(c3ccc(C(F)(F)F)cc3)N=C2C)s1 [Example 31] | 8.28 | 
33 | CC1=NN(c2ccc(C(C)(C)C)cc2)C(=O)/C1=C(/C)NNC(=O)c1ccc(C(=O)N2CCCC2)s1 [Example 15] | 5.27 | 
34 | CC1=NN(c2ccc(C(C)(C)C)cc2)C(=O)/C1=C(/C)NNC(=O)c1ccc(C(=O)NCC(=O)O)s1 [Example 23] | 6.23 | 
35 | CC1=NN(c2ccc(C(F)(F)F)cc2)C(=O)/C1=C(/C)NNC(=O)c1ccc(C(=O)N2CC(O)C(O)C2)s1 (stereo not shown) [Example 30] | 5.02 | 
36 | COC1CN(C(=O)c2ccc(C(=O)NN/C(C)=C3\C(=O)N(c4ccc(Cl)c(Cl)c4)N=C3C)s2)CC1OC (stereo not shown) [Example 44] | 11.3 | 
37 | CC1=NN(c2ccc(Cl)c(Cl)c2)C(=O)/C1=C(/C)NNC(=O)c1ccc(C(=O)N2CCC(N3CCCC3)CC2)s1 [Example 41] | 4.75 | 
38 | CC1=NN(c2ccc(C(C)(C)C)cc2)C(=O)/C1=C(/C)NNC(=O)c1ccc(C(=O)N2CC(O)C(O)C2)s1 (stereo not shown) [Example 13] | 1.01 | 
39 | CC1=NN(c2ccc(C(C)(C)C)cc2)C(=O)/C1=C(/C)NNC(=O)c1ccc(C(=O)NCc2ccccn2)s1 [Example 19] | 2.64 | 
40 | CC1=NN(c2ccc(C(C)(C)C)cc2)C(=O)/C1=C(/C)NNC(=O)c1ccc(C(=O)NCc2cccnc2)s1 [Example 20] | 0.528 | 
41 | CNC(=O)c1ccc(C(=O)NN/C(C)=C2\C(=O)N(c3ccc(C)c(C)c3)N=C2C)s1 [Example 10] | 5.17 | 
42 | CNC(=O)c1ccc(C(=O)NN/C(C)=C2\C(=O)N(c3ccc(C(C)(C)C)cc3)N=C2C)s1 [Example 25] | 0.661 | 
